Like-named read-outs stand apart in the source and are kept apart here. Square brackets hold non-standard residues; d marks the D form. Peptide text beside a SMILES is read from it. NMeThr(4R-Me,4-(CH2)6NHAc) = CN[C@H](C(=O)O)[C@H](O)[C@H](C)CCCCCCNC(C)=O; NMeL = CN[C@@H](CC(C)C)C(=O)O; NMeV = CN[C@H](C(=O)O)C(C)C; dNMeA = CN[C@H](C)C(=O)O; Abu = CC[C@H](N)C(=O)O
Experiments:
MRP2 = MRP2 (Homo sapiens, UniProt Q92887); test: Drug transporter inhibition, MRP2; conditions: MRP2, Vesicles
Procedure: (§1) Bile salt export pump (BSEP) and multidrug resistance protein (MRP)1 inhibition was assessed by measuring substrate accumulation in membrane vesicles prepared from insect Sf9 cells and recombinantly expressing BSEP and MRP2 (Genomembrane). Inhibition of all other transporters was assessed by measuring substrate accumulation in cells recombinantly expressing the transporter. Known inhibitors of each transporter were used as positive controls for the assays. […] Specific, ATP-dependent uptake was determined by subtracting uptake in negative control vesicles and cells not expressing the transporters, and secondly by subtracting uptake in the absence of ATP in the assays. Specific, ATP-dependent uptake was plotted as a function of CRV431 concentrations and fitted to nonlinear regressions to obtain IC50 values.

[1] = CRV431 concentrations in blood and liver, mice; assay type: in vivo, mouse; conditions: for Liver:Blood [CRV431] Ratio: Mouse
Source text: (§2) Male and female Sprague–Dawley rats and male C57BL/6 mice from the carbon tetrachloride and NASH studies were used to evaluate CRV431 pharmacokinetics and distribution. […] Terminal whole blood and livers were collected and frozen until drug extraction. Liver samples were homogenized in PBS or 1% formic acid (0.1 g–0.4 g liver sample per ml solvent) with bead-based homogenizers (TissueLyser or Beadruptor). […] Liver CRV431 concentrations were normalized to the masses of the liver samples.

[2] = system: human peripheral blood mononuclear cells; test: CFSE-PBMC proliferation; assay type: cell-based; conditions: highest tested concentration of 10 µM, 3 days
Procedure: Peripheral blood mononuclear cells (PBMC) were isolated by Ficoll Paque Plus centrifugation (17144003; GE Life Sciences) of venous blood from a healthy human volunteer. Cells were incubated for 5 minutes with 5 µg/ml carboxyfluorescein diacetate succinimidyl ester (C1157; Thermo Fisher) to produce stable intracellular carboxyfluorescein succinimidyl ester (CFSE) labeling (CFSE-PBMC). […] Cells were collected after 3 days of culture incubation, and flow cytometry was used to measure the partitioning of CFSE into daughter cells arising from cell division (discrete cell populations with successively halved CFSE content). Daughter cells as a percentage of all CFSE-labeled cells were normalized to DMSO treatment (100% stimulation) and wells without CD3 antibody coating (nonstimulated).

BCRP = BCRP (Homo sapiens, UniProt Q9UNQ0)
BCRP, sequence (Q9UNQ0 whole entry): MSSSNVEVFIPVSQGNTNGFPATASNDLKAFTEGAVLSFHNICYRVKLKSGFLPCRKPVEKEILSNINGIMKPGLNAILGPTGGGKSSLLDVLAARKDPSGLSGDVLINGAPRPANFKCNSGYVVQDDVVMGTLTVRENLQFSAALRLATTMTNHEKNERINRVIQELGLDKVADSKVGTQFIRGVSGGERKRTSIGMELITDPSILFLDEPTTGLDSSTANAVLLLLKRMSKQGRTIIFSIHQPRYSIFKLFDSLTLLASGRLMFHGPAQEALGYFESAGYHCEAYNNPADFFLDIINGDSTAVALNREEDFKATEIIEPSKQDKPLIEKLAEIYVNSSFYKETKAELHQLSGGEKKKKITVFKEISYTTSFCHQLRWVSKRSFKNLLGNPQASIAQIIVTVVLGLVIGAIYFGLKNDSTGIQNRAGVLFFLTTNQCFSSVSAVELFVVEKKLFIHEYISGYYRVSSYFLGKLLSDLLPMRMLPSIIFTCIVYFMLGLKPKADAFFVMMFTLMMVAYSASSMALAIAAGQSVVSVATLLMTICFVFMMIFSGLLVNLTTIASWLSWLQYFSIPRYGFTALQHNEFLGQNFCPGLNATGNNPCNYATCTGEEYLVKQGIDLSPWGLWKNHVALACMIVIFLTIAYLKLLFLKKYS
Procedure: Briefly, PGP and breast cancer resistance protein inhibition was assessed by measuring the bidirectional transport of substrates across cell monolayers in transwell culture plates. Efflux ratios were represented as (apical-to-basal flux)/(basal-to-apical flux), and efflux ratios were plotted relative to CRV431 concentration to derive IC50 values. Bile salt export pump (BSEP) and multidrug resistance protein (MRP)1 inhibition was assessed by measuring substrate accumulation in membrane vesicles prepared from insect Sf9 cells and recombinantly expressing BSEP and MRP2 (Genomembrane). Inhibition of all other transporters was assessed by measuring substrate accumulation in cells recombinantly expressing the transporter. Known inhibitors of each transporter were used as positive controls for the assays. […] Specific, ATP-dependent uptake was determined by subtracting uptake in negative control vesicles and cells not expressing the transporters, and secondly by subtracting uptake in the absence of ATP in the assays. Specific, ATP-dependent uptake was plotted as a function of CRV431 concentrations and fitted to nonlinear regressions to obtain IC50 values.

OCT2 = OCT2 (Homo sapiens, UniProt O15244); test: Drug transporter inhibition, OCT2; conditions: OCT2, HEK293
OCT2, sequence (O15244 whole entry): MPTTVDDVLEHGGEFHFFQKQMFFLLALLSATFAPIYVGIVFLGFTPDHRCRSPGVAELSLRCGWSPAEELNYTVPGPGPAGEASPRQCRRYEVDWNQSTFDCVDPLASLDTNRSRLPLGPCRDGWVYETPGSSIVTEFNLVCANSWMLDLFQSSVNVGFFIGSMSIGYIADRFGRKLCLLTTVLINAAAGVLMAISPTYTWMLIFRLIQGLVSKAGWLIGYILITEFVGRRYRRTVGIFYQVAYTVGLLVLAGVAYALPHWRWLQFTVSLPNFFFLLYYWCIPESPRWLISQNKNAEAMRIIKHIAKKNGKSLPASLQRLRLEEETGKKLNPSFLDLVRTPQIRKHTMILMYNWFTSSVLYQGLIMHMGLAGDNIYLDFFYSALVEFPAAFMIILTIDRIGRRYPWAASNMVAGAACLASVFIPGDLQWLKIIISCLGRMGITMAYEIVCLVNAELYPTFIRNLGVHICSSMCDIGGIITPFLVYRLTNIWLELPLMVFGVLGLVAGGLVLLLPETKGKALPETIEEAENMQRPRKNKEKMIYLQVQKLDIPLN
Procedure: as §1

six human cell types = test: Cytotoxicity analysis, resazurin viability assay
Procedure: CRV431 cytotoxicity was evaluated in cell culture with six human cell types: Jurkat E6.1 lymphocyte cell line (88042803, person; Sigma-Aldrich), HepaRG hepatocyte cell line (HPRGC10, person; Life Technologies), primary renal epithelial cells (CC-2556, unknown gender; Lonza), primary dermal fibroblasts (CC-2511, person; Lonza), primary bronchial smooth muscle cells (CC-2576, person; Lonza), and primary umbilical vein endothelial cells (CC-2519, person; Lonza). Jurkat cells (suspension cell type) were plated at 35,000 cells/well in 96-well plates. All other cell types (adherent cell types) were plated 2500–10,000 cells/well (adherent cell types) in GelCol bovine collagen-coated (5167; Advanced Biomatrix) 96-well Nunc Edge 2.0 evaporation barrier plates (14387223; Thermo Scientific). Cell culture medium and culture conditions followed suppliers’ recommendations. […] Cell viability was assessed at the end of the 3-day culture period using the In Vitro Toxicology Assay (Tox8-1KT; Sigma-Aldrich). In this assay the oxidoreduction indicator dye, resazurin, is colorometrically converted in proportion to the number of viable cells and measured by absorbance or fluorescence. Fluorescence was measured (excitation 540 nm; emission 590 nm) with a BMG Polarstar Galaxy Microplate Reader.

[3] = CRV431 blood and liver exposures across mouse and rat studies; conditions: daily oral dosing, mice and rats
Source text: as §2

[4] = system: NFAT promoter luciferase reporter, Jurkat cells; test: NFAT luciferase reporter assay in Jurkat cells; assay type: cell-based, human; conditions: for IC50: 18 hours, read-out: NFAT–Luc IC50; for NFAT–Luc IC50 Fold Difference: CRV431 vs CsA
Procedure: The luciferase reporter assays employed Jurkat cells stably transfected with gene constructs consisting of a luciferase gene plus human nuclear factor of activated T cells (NFAT) or interleukin-2 (IL-2) promoter elements (J1621 and J1651; Promega). The NFAT construct contained a DNA binding site only for NFAT, whereas the IL-2 construct contained binding sites for NFAT, nuclear factor κ-light-chain-enhancer of activated B cells, and activating protein-1 transcription factors. Cells were cultured in 96-well plates at 100,000 cells/well in RPMI 1640 medium (11875-093; Thermo Fisher) supplemented with 5% FBS (12483020; Thermo Fisher). Cells were activated either by precoating high protein-binding plates with 3 µg/ml anti-CD3 (UCHT clone) and anti-CD28 (CD28.2 clone) (BioLegend LEAF antibodies) or by adding phorbol myristate acetate (PMA; P8139; Sigma-Aldrich) to 15 ng/ml and A23187 ionophore (C7522; Sigma-Aldrich) to 0.75 µM. […] Cells were harvested after 18 hours of incubation, and luciferase was quantified with Promega Bio-Glo reagent (G7940; Promega) and measurement with a luminescence plate reader. Data were normalized to DMSO controls (100% stimulation) and to wells without antibody or PMA plus A23187 stimulation.

recombinant Cyp A (PPIA) = target: T1, recombinant Cyp A (PPIA) (Homo sapiens, UniProt P62937); test: Cyclophilin isomerase assay, Cyp A; assay type: biochemical
T1 construct: purchased R&D Systems 3589-CAB
T1 sequence (P62937 whole entry): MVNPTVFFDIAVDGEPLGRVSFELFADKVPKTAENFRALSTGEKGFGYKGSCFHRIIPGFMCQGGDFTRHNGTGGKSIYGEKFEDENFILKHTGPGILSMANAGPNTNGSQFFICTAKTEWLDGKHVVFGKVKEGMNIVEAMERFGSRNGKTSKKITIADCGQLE
Procedure: Cyclophilin isomerase activity was measured with an assay described by [Kofron et al. (1991)] with adaptations to 96-well plates. In this assay cyclophilins catalyze cis-to-trans isomerization of a proline peptide bond in a nitroanalide-coupled peptide substrate followed by cleavage of the trans-conformer peptide by α-chymotrypsin, release of the p-nitroaniline chromogen, and quantitation of p-nitroaniline by absorbance at 410 nm. All solutions were pre-equilibrated, and all assays were conducted at 4°C. Plates were preloaded with 5 µl peptide solution consisting of N-succinyl-alanine-alanine-proline-phenylalanine-p-nitroanilide (S7388; Sigma-Aldrich) and 400 mM lithium chloride (310468; Sigma-Aldrich) in anhydrous trifluoroethanol (T63002; Sigma-Aldrich). […] Absorbance measurements with a BMG Polarstar Galaxy plate reader were begun immediately and made at 6-second intervals for 6 minutes. Reaction curves were represented by increases in optical density 410 nm as a function of reaction time. For Ki determinations, initial reaction velocities were obtained from the reaction curves and plotted relative to substrate concentration, and the curves were fitted to the enzyme competitive inhibition model (GraphPad Prism) to derive Ki, maximum velocity (Vmax), and Michaelis constant values. For IC50 determinations, the reaction curves were fitted to one-phase exponential association regressions to obtain first-order rate constants.

BSEP = BSEP (Homo sapiens, UniProt O95342); test: Drug transporter inhibition, BSEP; conditions: Vesicles
BSEP, sequence (O95342 whole entry): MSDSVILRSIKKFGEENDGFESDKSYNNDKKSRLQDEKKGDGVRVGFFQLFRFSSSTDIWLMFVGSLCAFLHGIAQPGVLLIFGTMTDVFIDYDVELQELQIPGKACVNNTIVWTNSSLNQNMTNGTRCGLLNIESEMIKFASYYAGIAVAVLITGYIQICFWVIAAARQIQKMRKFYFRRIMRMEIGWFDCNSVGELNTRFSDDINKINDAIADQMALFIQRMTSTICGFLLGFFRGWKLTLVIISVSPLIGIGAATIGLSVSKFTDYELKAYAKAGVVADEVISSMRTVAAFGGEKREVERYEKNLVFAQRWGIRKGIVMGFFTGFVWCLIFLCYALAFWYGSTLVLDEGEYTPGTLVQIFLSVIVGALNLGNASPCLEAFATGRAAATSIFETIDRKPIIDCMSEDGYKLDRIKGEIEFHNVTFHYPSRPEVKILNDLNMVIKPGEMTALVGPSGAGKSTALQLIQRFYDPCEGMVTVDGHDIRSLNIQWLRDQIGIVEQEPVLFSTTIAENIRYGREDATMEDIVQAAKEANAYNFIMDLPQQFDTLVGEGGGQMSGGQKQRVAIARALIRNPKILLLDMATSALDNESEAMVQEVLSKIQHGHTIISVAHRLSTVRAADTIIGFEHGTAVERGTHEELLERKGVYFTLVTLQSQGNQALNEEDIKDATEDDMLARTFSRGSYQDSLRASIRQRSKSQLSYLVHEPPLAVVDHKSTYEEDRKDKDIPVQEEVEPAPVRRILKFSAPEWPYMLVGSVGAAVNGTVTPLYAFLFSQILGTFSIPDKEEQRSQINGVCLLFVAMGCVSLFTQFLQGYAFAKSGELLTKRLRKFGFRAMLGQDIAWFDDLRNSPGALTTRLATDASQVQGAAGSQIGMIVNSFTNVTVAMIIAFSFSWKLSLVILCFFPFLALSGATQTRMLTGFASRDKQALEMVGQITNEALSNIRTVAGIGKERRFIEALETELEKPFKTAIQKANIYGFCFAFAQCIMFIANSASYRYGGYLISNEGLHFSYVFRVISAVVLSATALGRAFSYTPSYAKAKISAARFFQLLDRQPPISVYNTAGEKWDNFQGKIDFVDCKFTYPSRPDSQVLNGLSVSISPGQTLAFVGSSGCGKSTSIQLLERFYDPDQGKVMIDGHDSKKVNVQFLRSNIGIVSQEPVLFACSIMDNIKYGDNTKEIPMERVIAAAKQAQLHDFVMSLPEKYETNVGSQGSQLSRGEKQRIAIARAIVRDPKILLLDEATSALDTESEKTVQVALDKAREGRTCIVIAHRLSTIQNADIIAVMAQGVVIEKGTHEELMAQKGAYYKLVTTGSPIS
Procedure: as §1

[5] = Single oral dose pharmacokinetics in rats; conditions: single oral dose 10 mg/kg
Source text: Male and female Sprague–Dawley rats and male C57BL/6 mice from the carbon tetrachloride and NASH studies were used to evaluate CRV431 pharmacokinetics and distribution. […] Terminal whole blood and livers were collected and frozen until drug extraction. Liver samples were homogenized in PBS or 1% formic acid (0.1 g–0.4 g liver sample per ml solvent) with bead-based homogenizers (TissueLyser or Beadruptor). […] Sample and standard compounds were extracted from blood and liver homogenates using a zinc sulfate/methanol precipitation method and quantified by liquid chromatography–electrospray ionization–mass spectrometry, as previously described ([Trepanier et al., 2018]). Liver CRV431 concentrations were normalized to the masses of the liver samples.
CRV431 pharmacokinetics in rats. […] Whole–blood concentrations of the two compounds were determined at the indicated time points. […] Means and S.D. shown.

MATE-1 = target: T2, MATE-1 (Homo sapiens, UniProt Q96FL8); test: Drug transporter inhibition, MATE-1; assay type: in vitro ADME; conditions: MATE-1, HEK293
T2 construct: expressed in transfected cells
T2 sequence (Q96FL8 whole entry): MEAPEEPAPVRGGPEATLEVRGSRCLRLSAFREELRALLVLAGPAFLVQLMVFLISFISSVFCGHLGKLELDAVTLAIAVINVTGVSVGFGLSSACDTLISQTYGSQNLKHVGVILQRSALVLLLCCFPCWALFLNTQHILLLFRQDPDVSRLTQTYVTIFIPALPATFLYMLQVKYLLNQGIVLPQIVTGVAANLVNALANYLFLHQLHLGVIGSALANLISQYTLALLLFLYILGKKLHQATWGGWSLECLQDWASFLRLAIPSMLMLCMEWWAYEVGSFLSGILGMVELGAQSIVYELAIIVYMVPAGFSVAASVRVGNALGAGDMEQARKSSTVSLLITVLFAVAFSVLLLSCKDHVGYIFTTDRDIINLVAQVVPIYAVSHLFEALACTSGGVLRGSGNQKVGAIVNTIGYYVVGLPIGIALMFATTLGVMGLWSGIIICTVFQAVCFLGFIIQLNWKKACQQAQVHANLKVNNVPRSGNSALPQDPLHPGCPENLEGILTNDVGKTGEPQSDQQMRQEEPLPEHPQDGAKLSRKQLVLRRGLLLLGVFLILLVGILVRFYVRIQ
Procedure: Inhibition of all other transporters was assessed by measuring substrate accumulation in cells recombinantly expressing the transporter. Known inhibitors of each transporter were used as positive controls for the assays. […] Specific, ATP-dependent uptake was determined by subtracting uptake in negative control vesicles and cells not expressing the transporters, and secondly by subtracting uptake in the absence of ATP in the assays. Specific, ATP-dependent uptake was plotted as a function of CRV431 concentrations and fitted to nonlinear regressions to obtain IC50 values.

[6] = mouse, in vivo, po, 50 mg/kg/day

MRP2, sequence (Q92887 whole entry): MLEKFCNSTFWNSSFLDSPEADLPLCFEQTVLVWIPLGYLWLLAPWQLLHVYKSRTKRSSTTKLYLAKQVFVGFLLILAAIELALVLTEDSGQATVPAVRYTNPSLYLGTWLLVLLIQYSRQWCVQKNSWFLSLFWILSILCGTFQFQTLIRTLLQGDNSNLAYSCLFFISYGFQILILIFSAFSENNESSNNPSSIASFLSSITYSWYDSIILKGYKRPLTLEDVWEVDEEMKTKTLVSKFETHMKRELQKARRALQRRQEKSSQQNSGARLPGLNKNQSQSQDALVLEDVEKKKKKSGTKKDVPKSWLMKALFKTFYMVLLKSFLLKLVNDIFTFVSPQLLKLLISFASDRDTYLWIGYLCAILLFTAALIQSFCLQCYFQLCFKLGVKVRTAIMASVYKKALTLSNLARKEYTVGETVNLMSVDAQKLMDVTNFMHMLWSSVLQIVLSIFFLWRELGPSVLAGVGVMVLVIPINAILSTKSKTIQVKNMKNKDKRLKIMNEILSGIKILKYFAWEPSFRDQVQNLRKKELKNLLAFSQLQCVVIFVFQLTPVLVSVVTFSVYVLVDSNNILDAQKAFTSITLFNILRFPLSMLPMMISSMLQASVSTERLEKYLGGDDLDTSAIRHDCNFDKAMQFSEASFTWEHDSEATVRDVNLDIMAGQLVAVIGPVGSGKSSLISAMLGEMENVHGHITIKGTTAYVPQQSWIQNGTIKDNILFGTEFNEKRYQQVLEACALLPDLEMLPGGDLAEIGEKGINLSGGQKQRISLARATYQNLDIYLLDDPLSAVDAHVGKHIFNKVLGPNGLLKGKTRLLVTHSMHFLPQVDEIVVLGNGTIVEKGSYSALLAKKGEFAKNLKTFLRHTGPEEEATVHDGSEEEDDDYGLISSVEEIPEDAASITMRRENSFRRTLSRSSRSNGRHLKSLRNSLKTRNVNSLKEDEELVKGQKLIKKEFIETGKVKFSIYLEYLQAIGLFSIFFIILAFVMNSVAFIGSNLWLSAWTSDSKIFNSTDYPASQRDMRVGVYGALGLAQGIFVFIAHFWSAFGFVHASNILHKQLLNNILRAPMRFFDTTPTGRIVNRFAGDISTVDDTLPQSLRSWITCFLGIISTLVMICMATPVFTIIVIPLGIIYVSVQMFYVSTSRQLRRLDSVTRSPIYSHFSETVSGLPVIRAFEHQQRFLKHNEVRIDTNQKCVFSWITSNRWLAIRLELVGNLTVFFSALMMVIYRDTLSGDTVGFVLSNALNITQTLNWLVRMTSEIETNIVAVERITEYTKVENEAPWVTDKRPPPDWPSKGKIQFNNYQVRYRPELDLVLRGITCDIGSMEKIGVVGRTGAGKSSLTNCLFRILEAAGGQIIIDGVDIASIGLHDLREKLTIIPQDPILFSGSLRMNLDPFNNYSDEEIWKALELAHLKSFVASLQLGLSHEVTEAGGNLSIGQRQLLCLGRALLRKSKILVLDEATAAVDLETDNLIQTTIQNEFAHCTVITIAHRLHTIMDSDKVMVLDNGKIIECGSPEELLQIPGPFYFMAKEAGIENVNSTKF

Question: What does the source list for CC[C@@H]1NC(=O)[C@H]([C@H](O)[C@H](C)CCCCCCNC(C)=O)N(C)C(=O)[C@H](C(C)C)N(C)C(=O)[C@H](CC(C)C)N(C)C(=O)[C@H](CC(C)C)N(C)C(=O)[C@@H](C)NC(=O)[C@H](C)NC(=O)[C@H](CC(C)C)N(C)C(=O)[C@H](C(C)C)NC(=O)[C@H](CC(C)C)N(C)C(=O)[C@@H](C)N(C)C1=O [CRV431] (cyclo(A[dA][NMeL][NMeL][NMeV][NMeThr(4R-Me,4-(CH2)6NHAc)][Abu][dNMeA][NMeL]V[NMeL]))?
Answer: CRV431 Inhibitory Potency vs. CsA (MRP2): 2.1× less; Liver:Blood [CRV431] Ratio ([1]; CCl4, 50 mg/kg per day oral, day 42, 4 hours post-dose): 15.4 ± 10.4; Liver:Blood [CRV431] Ratio ([1]; NASH, 50 mg/kg per day oral, day 189, 3 hours post-dose): 11.9 ± 8.5; peak blood levels at which CRV431 efficacy occurred in mice ([1]; mouse, in vivo): 1.2 to 1.4 µg/mL; Blood [1, 6]: 1.4 ± 1.5 µg/mL; Liver [1, 6]: 11.6 ± 9.0 µg/g; inhibition of proliferation [2]: 40%; IC50 (BCRP): 23000 nM; CRV431 Inhibitory Potency vs. CsA (OCT2): Same (no inhibition); IC50 (OCT2): > 50000 nM; CC50 (six human cell types): 23600 nM; lethality (six human cell types; at the highest concentrations tested (up to 80 µM), 3 days): 100%; fold higher levels in liver than in the blood [3]: 5- to 15 fold; IC50 ([4]; CD3 + CD28 antibodies stimulation): 292 nM; NFAT–Luc IC50 Fold Difference ([4]; CD3 + CD28 antibodies): 65.4; NFAT–Luc IC50 Fold Difference ([4]; PMA + A23187): 60.2; IC50 ([4]; PMA + A23187 stimulation): 205 nM; times less potent than CsA on Jurkat–NFAT cells ([4]; ratio of CRV431 and CsA IC50): ~63 times; Maximum enzyme velocity (Vmax) in the presence of compound (recombinant Cyp A (PPIA)): 5.3 µmol/s per nanomole Cyp A; IC50 Fold Difference (recombinant Cyp A (PPIA); CsA IC50 vs CRV431 IC50, PPIA): 10.2; IC50 (recombinant Cyp A (PPIA); PPIA (Cyp A), one peptide substrate concentration): 2.5 nM; Ki (recombinant Cyp A (PPIA); competitive enzyme inhibition model, multiple substrate concentrations, 4°C, read-out: Ki toward cyclophilin A): 1.3 nM; fold higher potency of CRV431 vs CsA (Ki) (recombinant Cyp A (PPIA); ratio of Ki values): 13 fold; CRV431 Inhibitory Potency vs. CsA (BSEP): 3.4× less; clearance fold difference, CRV431 vs CsA [5]: 3.5 fold; CRV431 Inhibitory Potency vs. CsA (MATE-1): Same (no inhibition)
